Measurements reported in US10590113B2, “6-hydroxy-4-oxo-1,4-dihydropyrimidine-5-carboxamides as APJ agonists” (priority 2016, dated 2020).

The molecules below were run against T1, human APJ receptor (Homo sapiens, UniProt P35414) (assay: Intracellular cAMP Accumulation Assay (APJ hcAMP, HTRF)). Settings: not given.
T1 construct: expressed in transfected cells; host or cells: HEK293
T1 sequence (P35414 1-380): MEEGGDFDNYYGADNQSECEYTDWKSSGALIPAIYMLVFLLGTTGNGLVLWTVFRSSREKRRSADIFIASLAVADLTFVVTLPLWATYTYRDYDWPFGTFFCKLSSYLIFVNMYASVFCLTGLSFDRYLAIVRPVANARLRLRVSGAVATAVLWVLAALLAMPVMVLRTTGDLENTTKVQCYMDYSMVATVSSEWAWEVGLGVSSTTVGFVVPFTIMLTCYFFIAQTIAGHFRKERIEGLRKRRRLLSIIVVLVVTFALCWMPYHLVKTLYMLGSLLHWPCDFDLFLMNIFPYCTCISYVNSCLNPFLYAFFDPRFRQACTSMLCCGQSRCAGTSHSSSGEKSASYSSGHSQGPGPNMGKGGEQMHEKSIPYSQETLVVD
Assay type: cell-based
Procedure, shortened: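 Stably transfected HEK293 cells (5,000/well) incubated 30 min at room temperature with serially diluted compound, […] and 2 μM forskolin. cAMP measured by HTRF after 60 min with detection reagents, quantified against a cAMP standard curve; EC50 from variable-slope sigmoidal fit of inhibition of forskolin-stimulated cAMP.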
`C=CCCc1nc(=O)c(C(=O)N2CC[C@H](c3ccccc3)C2)c(O)n1-c1c(OC)cccc1OC` [Example 27, (R)-2-(but-3-en-1-yl)-3-(2,6-dimethoxyphenyl)-6-hydroxy-5-(3-phenylpyrrolidine-1-carbonyl)pyrimidin-4(3H)-one] gave an EC50 of 0.01 to 10 nM.

Same assay, conditions: human APJ, cAMP accumulation; potency range class; read-out: hAPJ cAMP EC50 Potency range
`CCn1ccc(-c2nc(=O)c(C(=O)N3CCC(c4c(F)cccc4F)C3)c(O)n2-c2c(OC)cccc2OC)n1` (single isomer, unassigned) [Example 276, 5-[3-(2,6-difluorophenyl)pyrrolidine-1-carbonyl]-1-(2,6-dimethoxyphenyl)-2-(1-ethyl-1H-pyrazol-3-yl)-6-hydroxy-1,4-dihydropyrimidin-4-one] was tested, and the EC50 was 0.01 to 10 nM.
In the case of `COc1cccc(OC)c1-n1c(-c2ccc(F)cc2)nc(=O)c(C(=O)N2CCC(c3ccncc3)C2)c1O` (single isomer, unassigned) [Example 224, 1-(2,6-dimethoxyphenyl)-2-(4-fluorophenyl)-6-hydroxy-5-[3-(pyridin-4-yl)pyrrolidine-1-carbonyl]-1,4-dihydropyrimidin-4-one], the EC50 is reported as 10 to 100 nM.
`COc1cccc(OC)c1-n1c(-c2ccc(F)cc2)nc(=O)c(C(=O)N2CCC(c3ccccc3Cl)C2)c1O` (single isomer, unassigned) [Example 229, 5-[3-(2-chlorophenyl)pyrrolidine-1-carbonyl]-1-(2,6-dimethoxyphenyl)-2-(4-fluorophenyl)-6-hydroxy-1,4-dihydropyrimidin-4-one] was tested, and the EC50 was 0.01 to 10 nM.
`CCc1cccc(CC)c1-n1c(-c2ccn(C(C)C)n2)nc(=O)c(C(=O)N2CCC(c3ccccc3F)C2)c1O` (single isomer, unassigned) [Example 295, 1-(2,6-diethylphenyl)-5-[3-(2-fluorophenyl)pyrrolidine-1-carbonyl]-6-hydroxy-2-[1-(propan-2-yl)-1H-pyrazol-3-yl]-1,4-dihydropyrimidin-4-one] showed an EC50 of 0.01 to 10 nM.
For `CCCCc1nc(=O)c(C(=O)N2CCC(c3ncccc3F)C2)c(O)n1-c1c(OC)cccc1OC` (single isomer, unassigned) [Example 366, 2-butyl-1-(2,6-dimethoxyphenyl)-5-(3-(3-fluoropyridin-2-yl)pyrrolidine-1-carbonyl)-6-hydroxypyrimidin-4(1H)-one], the EC50 was 0.01 to 10 nM.
For `CCn1ccc(-c2nc(=O)c(C(=O)N3CCC(c4ncc(F)cc4F)C3)c(O)n2[C@H](c2cc(F)cc(F)c2)C(C)C)n1` (single isomer, unassigned) [Example 327], the EC50 was 0.01 to 10 nM.
Work on `CCc1cccc(CC)c1-n1c(-c2csc(C)n2)nc(=O)c(C(=O)N2CCC(c3ncc(F)cc3F)C2)c1O` (single isomer, unassigned) [Example 298, 1-(2,6-diethylphenyl)-5-[3-(3,5-difluoropyridin-2-yl)pyrrolidine-1-carbonyl]-6-hydroxy-2-(2-methyl-1,3-thiazol-4-yl)-1,4-dihydropyrimidin-4-one] yielded an EC50 of 0.01 to 10 nM.
Work on `CCc1cccc(CC)c1-n1c(-c2ccn(C3CC3)n2)nc(=O)c(C(=O)N2CCC(c3ccc(F)cn3)C2)c1O` (single isomer, unassigned) [Example 328, 2-(1-cyclopropyl-1H-pyrazol-3-yl)-1-(2,6-diethylphenyl)-5-[3-(5-fluoropyridin-2-yl)pyrrolidine-1-carbonyl]-6-hydroxy-1,4-dihydropyrimidin-4-one] yielded an EC50 of 0.01 to 10 nM.

Same assay, conditions: human APJ, intracellular cAMP accumulation; read-out: hAPJ cAMP EC50 Potency range
Molecule `COc1cccc(OC)c1-n1c(CCC2CC2)nc(=O)c(C(=O)N2CCC(c3ccc(Cl)cn3)C2)c1O` (single isomer, unassigned) [Example 171, 5-[3-(5-chloropyridin-2-yl)pyrrolidine-1-carbonyl]-2-(2-cyclopropylethyl)-1-(2,6-dimethoxyphenyl)-6-hydroxy-1,4-dihydropyrimidin-4-one] has an EC50 of 0.01 to 10 nM.
`COc1cccc(OC)c1-n1c(COC(C)C)nc(=O)c(C(=O)N2CCC(c3ccc(C#N)cc3)C2)c1O` (single isomer, unassigned) [Example 107, 4-{1-[1-(2,6-dimethoxyphenyl)-6-hydroxy-4-oxo-2-[(propan-2-yloxy)methyl]-1,4-dihydropyrimidine-5-carbonyl]pyrrolidin-3-yl}benzonitrile] was tested, and the EC50 was 0.01 to 10 nM.
In the case of `COc1cccc(OC)c1-n1c(COC2CC2)nc(=O)c(C(=O)N2CCC(c3ccc(F)cc3)C2)c1O` (single isomer, unassigned) [Example 103, 2-(cyclopropoxymethyl)-1-(2,6-dimethoxyphenyl)-5-[3-(4-fluorophenyl)pyrrolidine-1-carbonyl]-6-hydroxy-1,4-dihydropyrimidin-4-one], the EC50 is reported as 0.01 to 10 nM.
In the case of `COc1cccc(OC)c1-n1c(CCC(C)C)nc(=O)c(C(=O)N2CC[C@@H](c3ccccc3)C2)c1O` [Example 24, (S)-1-(2,6-dimethoxyphenyl)-6-hydroxy-2-isopentyl-5-(3-phenylpyrrolidine-1-carbonyl)pyrimidin-4(1H)-one], the EC50 is reported as 0.01 to 10 nM.
Work on `COc1cccc(OC)c1-n1c(CCC2CC2)nc(=O)c(C(=O)N2CCC(c3ncccc3F)C2)c1O` (single isomer, unassigned) [Example 179, 2-(2-cyclopropylethyl)-1-(2,6-dimethoxyphenyl)-5-[3-(3-fluoropyridin-2-yl)pyrrolidine-1-carbonyl]-6-hydroxy-1,4-dihydropyrimidin-4-one] yielded an EC50 of 0.01 to 10 nM.
With `CCCCc1nc(=O)c(C(=O)N2CC[C@H](c3ccccc3)C2)c(O)n1-c1c(OC)ncnc1OC` [Example 113, 2-butyl-3-(4,6-dimethoxypyrimidin-5-yl)-6-hydroxy-5-[(3R)-3-phenylpyrrolidine-1-carbonyl]-3,4-dihydropyrimidin-4-one] the EC50 was 0.01 to 10 nM.
`CCCCc1nc(O)c(C(=O)N2CCC(c3ccc(F)cc3)C2)c(=O)n1-c1c(CC)cccc1CC` (racemic) [Example 89, 2-butyl-3-(2,6-diethylphenyl)-5-[3-(4-fluorophenyl)pyrrolidine-1-carbonyl]-6-hydroxy-3,4-dihydropyrimidin-4-one] showed an EC50 of 0.01 to 10 nM.
Work on `CCCCc1nc(=O)c(C(=O)N2CC[C@H](c3ccccc3)C2)c(O)n1[C@@H](C)c1ccccc1OC` [Example 156, 2-butyl-6-hydroxy-3-[(1S)-1-(2-methoxyphenyl)ethyl]-5-[(3R)-3-phenylpyrrolidine-1-carbonyl]-3,4-dihydropyrimidin-4-one] yielded an EC50 of 100 to 300 nM.
In the case of `COc1cccc(OC)c1-n1c(COC2CC2)nc(=O)c(C(=O)N2CCC(c3ccccc3Cl)C2)c1O` (single isomer, unassigned) [Example 22, 5-(3-(2-chlorophenyl)pyrrolidine-1-carbonyl)-2-(cyclopropoxymethyl)-1-(2,6-dimethoxyphenyl)-6-hydroxypyrimidin-4(1H)-one], the EC50 is reported as 0.01 to 10 nM.
Molecule `CC[C@@H](c1cc(F)cc(F)c1)n1c(-c2nc(C)cs2)nc(=O)c(C(=O)N2CCC(c3ncccc3F)C2)c1O` (single isomer, unassigned) [Example 204] has an EC50 of 0.01 to 10 nM.
`CC[C@@H](c1cc(F)cc(F)c1)n1c(-c2ccn(CC)n2)nc(=O)c(C(=O)N2CCC(c3ncccc3F)C2)c1O` (single isomer, unassigned) [Example 212] showed an EC50 of 0.01 to 10 nM.

Same assay, conditions: read-out: hAPJ cAMP EC50 Potency range
`CCCCc1nc(=O)c(C(=O)N2CCC(Oc3ccccc3Cl)CC2)c(O)n1-c1c(OC)cccc1OC` [Example 382, 2-butyl-5-(4-(2-chlorophenoxy)piperidine-1-carbonyl)-1-(2,6-dimethoxyphenyl)-6-hydroxypyrimidin-4(1H)-one] gave an EC50 of 0.01 to 10 nM.
